In ChEMBL document CHEMBL1817560, “Selectivity of kinase inhibitor fragments” (J Med Chem, 2011):

Experiments:
[1] = biological target: Tyrosine-protein kinase SYK (Homo sapiens, UniProt P43405); experiment: Inhibition of SYK expressed in Escherichia coli or baculovirus-infected insect cells at 667 uM by TR-FRET assay
[2] = biological target: Tyrosine-protein kinase Fes/Fps (Homo sapiens) (UniProt P07332); experiment: Inhibition of FES expressed in Escherichia coli or baculovirus-infected insect cells using ATP as substrate at 400 uM by fluorescence polarization assay
[3] = biological target: T1, Tyrosine-protein kinase JAK3 (Homo sapiens) (UniProt P52333); experiment: Inhibition of JAK3 expressed in Escherichia coli or baculovirus-infected insect cells at 667 uM by TR-FRET assay
T1 sequence (whole entry): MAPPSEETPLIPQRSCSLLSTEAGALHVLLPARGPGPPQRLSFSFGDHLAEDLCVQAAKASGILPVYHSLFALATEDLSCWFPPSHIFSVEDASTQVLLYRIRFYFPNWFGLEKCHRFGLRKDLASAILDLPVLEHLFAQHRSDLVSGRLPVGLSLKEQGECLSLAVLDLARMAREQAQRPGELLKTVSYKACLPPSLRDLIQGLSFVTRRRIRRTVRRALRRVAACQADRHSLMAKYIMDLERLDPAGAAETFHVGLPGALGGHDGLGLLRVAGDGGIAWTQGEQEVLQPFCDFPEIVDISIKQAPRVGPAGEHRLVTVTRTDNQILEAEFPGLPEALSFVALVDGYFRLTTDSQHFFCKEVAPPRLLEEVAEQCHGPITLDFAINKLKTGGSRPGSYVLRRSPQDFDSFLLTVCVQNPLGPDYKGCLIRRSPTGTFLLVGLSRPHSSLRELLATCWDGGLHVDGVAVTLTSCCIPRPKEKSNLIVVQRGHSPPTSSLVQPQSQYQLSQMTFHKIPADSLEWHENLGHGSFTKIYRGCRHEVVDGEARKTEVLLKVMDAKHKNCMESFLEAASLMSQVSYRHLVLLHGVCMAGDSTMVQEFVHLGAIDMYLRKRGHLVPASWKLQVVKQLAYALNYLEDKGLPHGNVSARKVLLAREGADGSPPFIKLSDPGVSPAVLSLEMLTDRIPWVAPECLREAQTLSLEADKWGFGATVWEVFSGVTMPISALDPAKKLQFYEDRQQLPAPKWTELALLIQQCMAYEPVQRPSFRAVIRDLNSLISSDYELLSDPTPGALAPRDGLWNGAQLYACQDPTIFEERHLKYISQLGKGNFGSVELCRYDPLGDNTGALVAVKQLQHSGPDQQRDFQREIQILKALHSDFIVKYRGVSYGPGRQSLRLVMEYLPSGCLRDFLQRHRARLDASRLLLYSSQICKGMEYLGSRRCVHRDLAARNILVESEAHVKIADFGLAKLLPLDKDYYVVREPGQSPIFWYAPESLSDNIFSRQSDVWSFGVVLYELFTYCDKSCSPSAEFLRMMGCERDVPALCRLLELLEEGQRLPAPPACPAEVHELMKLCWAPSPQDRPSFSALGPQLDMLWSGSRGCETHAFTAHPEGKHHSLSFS

[4] = biological target: 3-phosphoinositide-dependent protein kinase 1 (Homo sapiens) (UniProt O15530); experiment: Inhibition of PDK1 expressed in Escherichia coli or baculovirus-infected insect cells using gamma-[33P]ATP at 400 uM by scintillation proximity assay
[5] = biological target: Receptor-interacting serine/threonine-protein kinase 2 (Homo sapiens) (UniProt O43353); experiment: Inhibition of RIP2 expressed in Escherichia coli or baculovirus-infected insect cells at 400 uM by fluorescence polarization assay
[6] = biological target: Mitogen-activated protein kinase 8 (Homo sapiens, UniProt P45983); experiment: Inhibition of JNK1 expressed in Escherichia coli or baculovirus-infected insect cells at 667 uM by TR-FRET assay
[7] = biological target: Insulin-like growth factor 1 receptor (Homo sapiens) (UniProt P08069); experiment: Inhibition of IGF1R expressed in Escherichia coli or baculovirus-infected insect cells at 400 uM by TR-FRET assay
[8] = biological target: T2, Mitogen-activated protein kinase kinase kinase 5 (Homo sapiens) (UniProt Q99683); experiment: Inhibition of ASK1 expressed in Escherichia coli or baculovirus-infected insect cells at 667 uM by IMAP assay
T2 sequence (whole entry): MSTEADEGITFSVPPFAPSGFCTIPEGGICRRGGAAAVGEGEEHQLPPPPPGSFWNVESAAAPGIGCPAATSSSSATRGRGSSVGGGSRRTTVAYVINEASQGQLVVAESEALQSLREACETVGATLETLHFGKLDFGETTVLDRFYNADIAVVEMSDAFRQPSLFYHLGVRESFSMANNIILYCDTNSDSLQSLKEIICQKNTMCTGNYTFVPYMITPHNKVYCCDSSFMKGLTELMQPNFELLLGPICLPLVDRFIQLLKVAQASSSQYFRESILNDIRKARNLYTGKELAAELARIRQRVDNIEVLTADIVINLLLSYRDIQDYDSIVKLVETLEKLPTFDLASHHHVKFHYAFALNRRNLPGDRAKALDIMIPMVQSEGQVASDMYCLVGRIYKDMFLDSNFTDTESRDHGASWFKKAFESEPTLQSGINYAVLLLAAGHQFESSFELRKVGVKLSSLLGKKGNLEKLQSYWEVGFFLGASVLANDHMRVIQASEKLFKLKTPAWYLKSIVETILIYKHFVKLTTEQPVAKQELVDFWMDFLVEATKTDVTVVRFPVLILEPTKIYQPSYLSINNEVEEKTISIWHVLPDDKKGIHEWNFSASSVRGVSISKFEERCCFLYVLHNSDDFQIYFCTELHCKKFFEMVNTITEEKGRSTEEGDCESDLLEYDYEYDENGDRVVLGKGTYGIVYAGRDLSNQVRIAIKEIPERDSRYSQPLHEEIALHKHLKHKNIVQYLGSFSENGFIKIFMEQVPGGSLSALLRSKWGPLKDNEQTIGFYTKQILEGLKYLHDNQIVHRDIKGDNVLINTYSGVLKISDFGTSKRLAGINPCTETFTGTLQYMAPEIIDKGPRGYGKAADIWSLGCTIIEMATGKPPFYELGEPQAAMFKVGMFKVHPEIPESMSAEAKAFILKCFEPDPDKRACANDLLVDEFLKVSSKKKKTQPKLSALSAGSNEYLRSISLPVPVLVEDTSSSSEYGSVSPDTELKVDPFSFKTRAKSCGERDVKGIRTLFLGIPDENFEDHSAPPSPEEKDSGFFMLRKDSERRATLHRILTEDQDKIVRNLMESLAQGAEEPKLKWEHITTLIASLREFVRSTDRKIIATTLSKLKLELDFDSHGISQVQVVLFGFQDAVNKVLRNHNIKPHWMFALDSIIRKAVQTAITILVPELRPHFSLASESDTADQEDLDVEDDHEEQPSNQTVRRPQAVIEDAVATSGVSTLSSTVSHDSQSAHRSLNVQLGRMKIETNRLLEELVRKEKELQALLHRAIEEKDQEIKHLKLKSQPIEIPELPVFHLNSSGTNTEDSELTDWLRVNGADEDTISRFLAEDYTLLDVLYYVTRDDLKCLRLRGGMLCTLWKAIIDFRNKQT

Sequence of 3-phosphoinositide-dependent protein kinase 1 (Homo sapiens) (O15530 whole entry, looked up): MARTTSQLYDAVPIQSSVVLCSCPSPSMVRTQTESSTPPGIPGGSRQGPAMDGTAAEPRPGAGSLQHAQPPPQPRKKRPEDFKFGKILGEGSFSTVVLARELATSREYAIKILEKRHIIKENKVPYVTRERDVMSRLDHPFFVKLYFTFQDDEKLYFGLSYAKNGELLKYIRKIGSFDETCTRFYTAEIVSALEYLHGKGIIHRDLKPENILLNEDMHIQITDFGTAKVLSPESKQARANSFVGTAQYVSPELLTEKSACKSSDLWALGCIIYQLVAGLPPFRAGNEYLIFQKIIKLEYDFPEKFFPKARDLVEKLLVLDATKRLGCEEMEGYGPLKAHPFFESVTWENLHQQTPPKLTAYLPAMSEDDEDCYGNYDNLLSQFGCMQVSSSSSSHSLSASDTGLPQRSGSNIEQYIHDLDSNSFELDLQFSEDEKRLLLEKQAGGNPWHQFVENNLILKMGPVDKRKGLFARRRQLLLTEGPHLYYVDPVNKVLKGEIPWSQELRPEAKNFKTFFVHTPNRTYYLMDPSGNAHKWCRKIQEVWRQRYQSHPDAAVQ
Sequence of Tyrosine-protein kinase Fes/Fps (Homo sapiens) (P07332 whole entry): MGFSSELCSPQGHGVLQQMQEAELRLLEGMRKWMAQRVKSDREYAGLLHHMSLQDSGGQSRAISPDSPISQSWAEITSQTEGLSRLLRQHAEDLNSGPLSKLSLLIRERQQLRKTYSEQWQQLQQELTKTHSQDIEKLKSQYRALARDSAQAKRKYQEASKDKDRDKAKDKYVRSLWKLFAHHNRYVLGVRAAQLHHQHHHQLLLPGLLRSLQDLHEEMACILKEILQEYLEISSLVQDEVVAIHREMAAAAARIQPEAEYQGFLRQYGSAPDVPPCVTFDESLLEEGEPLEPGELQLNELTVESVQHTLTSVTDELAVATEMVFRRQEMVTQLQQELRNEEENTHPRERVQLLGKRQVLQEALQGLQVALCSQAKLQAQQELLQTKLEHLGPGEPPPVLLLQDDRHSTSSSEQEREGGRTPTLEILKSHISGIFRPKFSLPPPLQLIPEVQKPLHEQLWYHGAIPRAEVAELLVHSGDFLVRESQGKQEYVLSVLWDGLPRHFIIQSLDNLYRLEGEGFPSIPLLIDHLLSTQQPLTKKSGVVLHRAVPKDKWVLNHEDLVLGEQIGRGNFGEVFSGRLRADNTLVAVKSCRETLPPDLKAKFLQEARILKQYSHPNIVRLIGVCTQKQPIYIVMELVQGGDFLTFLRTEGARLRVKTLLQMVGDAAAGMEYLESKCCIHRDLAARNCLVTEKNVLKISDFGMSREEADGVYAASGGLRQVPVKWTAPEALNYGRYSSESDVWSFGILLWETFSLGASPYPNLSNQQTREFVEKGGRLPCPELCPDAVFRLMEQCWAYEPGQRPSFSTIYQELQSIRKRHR
Sequence of Insulin-like growth factor 1 receptor (Homo sapiens) (P08069 31-736 limits assumed): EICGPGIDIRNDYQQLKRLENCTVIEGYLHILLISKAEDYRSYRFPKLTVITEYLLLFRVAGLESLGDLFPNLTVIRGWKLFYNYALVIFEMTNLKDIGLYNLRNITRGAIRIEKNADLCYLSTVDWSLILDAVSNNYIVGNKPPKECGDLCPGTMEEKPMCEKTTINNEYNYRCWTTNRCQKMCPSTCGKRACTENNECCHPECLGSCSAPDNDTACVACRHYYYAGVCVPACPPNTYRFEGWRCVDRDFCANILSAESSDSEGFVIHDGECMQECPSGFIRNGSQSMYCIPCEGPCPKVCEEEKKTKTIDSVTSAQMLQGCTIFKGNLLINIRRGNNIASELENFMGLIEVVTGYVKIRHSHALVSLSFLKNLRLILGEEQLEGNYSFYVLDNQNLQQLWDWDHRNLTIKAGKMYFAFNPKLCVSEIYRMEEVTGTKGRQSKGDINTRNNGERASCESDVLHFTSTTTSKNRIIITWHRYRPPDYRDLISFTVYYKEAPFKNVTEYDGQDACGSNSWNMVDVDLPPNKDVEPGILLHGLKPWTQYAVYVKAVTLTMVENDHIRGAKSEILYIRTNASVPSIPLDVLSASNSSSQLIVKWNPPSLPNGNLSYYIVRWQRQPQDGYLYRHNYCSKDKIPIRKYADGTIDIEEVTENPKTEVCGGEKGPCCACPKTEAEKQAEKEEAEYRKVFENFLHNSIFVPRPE
Sequence of Insulin-like growth factor 1 receptor (Homo sapiens) (P08069 741-1367 limits assumed): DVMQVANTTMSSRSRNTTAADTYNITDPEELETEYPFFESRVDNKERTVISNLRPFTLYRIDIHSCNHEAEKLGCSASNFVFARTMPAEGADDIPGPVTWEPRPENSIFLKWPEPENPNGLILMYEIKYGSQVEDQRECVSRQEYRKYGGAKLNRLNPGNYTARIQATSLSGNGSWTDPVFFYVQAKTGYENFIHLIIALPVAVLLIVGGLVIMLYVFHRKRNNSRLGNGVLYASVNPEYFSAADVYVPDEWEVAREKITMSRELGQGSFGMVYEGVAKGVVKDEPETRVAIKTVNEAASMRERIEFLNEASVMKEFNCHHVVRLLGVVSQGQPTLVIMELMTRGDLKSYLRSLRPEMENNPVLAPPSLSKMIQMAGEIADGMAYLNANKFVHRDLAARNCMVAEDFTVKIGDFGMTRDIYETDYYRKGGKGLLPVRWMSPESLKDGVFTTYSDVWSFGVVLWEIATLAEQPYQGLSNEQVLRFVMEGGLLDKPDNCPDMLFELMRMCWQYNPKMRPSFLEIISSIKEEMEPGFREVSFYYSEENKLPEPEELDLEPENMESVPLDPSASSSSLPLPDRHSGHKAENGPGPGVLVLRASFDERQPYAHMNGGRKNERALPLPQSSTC
Sequence of Receptor-interacting serine/threonine-protein kinase 2 (Homo sapiens) (O43353 whole entry): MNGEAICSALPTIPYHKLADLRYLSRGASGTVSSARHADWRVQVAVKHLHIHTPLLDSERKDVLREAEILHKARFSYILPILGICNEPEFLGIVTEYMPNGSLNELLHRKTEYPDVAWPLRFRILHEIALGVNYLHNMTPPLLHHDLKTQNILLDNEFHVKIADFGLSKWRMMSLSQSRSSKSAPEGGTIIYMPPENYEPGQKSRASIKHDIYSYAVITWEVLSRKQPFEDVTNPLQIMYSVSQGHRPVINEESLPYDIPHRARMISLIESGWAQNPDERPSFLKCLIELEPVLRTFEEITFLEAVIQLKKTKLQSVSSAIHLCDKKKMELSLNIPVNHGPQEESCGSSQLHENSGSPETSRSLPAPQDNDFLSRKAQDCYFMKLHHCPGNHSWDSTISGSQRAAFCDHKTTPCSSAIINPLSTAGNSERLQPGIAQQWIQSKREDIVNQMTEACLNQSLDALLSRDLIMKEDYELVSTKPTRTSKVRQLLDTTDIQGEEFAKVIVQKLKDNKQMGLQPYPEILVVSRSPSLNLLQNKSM
Sequence of Mitogen-activated protein kinase 8 (P45983 whole entry): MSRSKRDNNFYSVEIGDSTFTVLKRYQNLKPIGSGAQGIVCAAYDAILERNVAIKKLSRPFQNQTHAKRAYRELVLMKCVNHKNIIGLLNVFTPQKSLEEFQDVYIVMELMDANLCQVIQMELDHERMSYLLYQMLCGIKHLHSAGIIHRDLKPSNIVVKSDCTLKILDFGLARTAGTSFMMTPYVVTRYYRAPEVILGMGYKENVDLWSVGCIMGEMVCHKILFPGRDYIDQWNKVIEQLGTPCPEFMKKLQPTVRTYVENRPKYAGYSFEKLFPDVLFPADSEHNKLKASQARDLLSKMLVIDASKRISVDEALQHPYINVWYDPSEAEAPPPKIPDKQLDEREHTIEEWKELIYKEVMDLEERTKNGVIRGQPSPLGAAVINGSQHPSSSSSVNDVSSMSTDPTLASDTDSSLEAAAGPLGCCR

Row | SMILES | inhibition [1] [%] | inhibition [2] [%] | inhibition [3] [%] | inhibition [4] [%] | inhibition [5] [%] | inhibition [6] [%] | inhibition [7] [%] | inhibition [8] [%]
1 | Nc1ncccc1OCc1ccccc1 | 51 | 100 | 54 | 35 | 94 | 18 | 20 | 39
2 | c1n[nH]c2c1CCCC2 | 26 | 14 | 5 |  | 2 | 13 | 15 | 
3 | c1ccc2[nH]ncc2c1 [INDAZOLE] | 21 | 1 | 29 | 25 | 0 | 13 | 24 | 31
4 | c1ccc(Nc2ccccc2)cc1 | 8 | 9 | 2 | 9 |  | 1 | 0 | 2
5 | Nc1ccc2ncc(-c3ccccc3)n2n1 | 86 | 68 | 74 | 66 | 69 | 83 | 92 | 77
6 | c1ccc(-c2cnc3nccnn23)cc1 | 15 | 70 | 0 | 2 | 0 | 14 | 0 | 1
7 | Nc1[nH]cnc2ncnc1-2 | 56 | 20 | 78 | 77 | 11 | 33 | 44 | 88
8 | c1ccc(Nc2ncccn2)cc1 | 94 | 35 | 36 | 27 | 24 | 74 | 18 | 10

Continued, values first:

Row | inhibition [1] [%] | inhibition [2] [%] | inhibition [3] [%] | inhibition [4] [%] | inhibition [5] [%] | inhibition [6] [%] | inhibition [7] [%] | inhibition [8] [%] | SMILES
9 | 25 | 11 | 72 | 53 | 11 | 34 | 47 | 80 | Nc1[nH]nc2ccccc12
10 | 20 | 3 | 0 | 25 | 7 | 4 | 0 | 3 | CC(C)(C)c1cc(NC(=O)Nc2ccccc2)no1
11 | 6 | 1 | 0 | 11 | 7 | 16 |  | 9 | Cc1ccc(C(=O)NC2CC2)cc1F
12 | 0 | 0 | 0 | 15 | 1 | 0 | 0 | 9 | Cc1ccc(NC(=O)Nc2cccc(C(F)(F)F)c2)cc1
13 | 87 | 13 | 0 | 20 | 0 | 0 | 6 |  | O=C(Nc1ccccc1)Nc1ccccc1
14 | 36 | 12 | 54 | 40 | 10 | 20 |  | 52 | Nc1n[nH]c2ncccc12
15 | 27 | 9 | 53 | 25 | 5 | 15 | 23 |  | c1cnc2[nH]ccc2c1
16 | 0 | 6 | 0 | 8 | 0 | 0 | 1 | 0 | O=C(Nc1ccccc1)Nc1cccc(C(F)(F)F)c1
17 | 3 | 3 | 0 | 15 | 0 | 2 | 5 | 13 | Cc1ccc(NC(=O)Nc2cc(C(C)(C)C)nn2-c2ccccc2)cc1
